Data taken from patent US20220119354A1, “DIAMINO-SUBSTITUTED PYRIDINES AND PYRIMIDINES AS HERBICIDES” (FMC Corporation, priority 2019, published 2022).

Legend:
Type in all cases: in vivo
[1] = system: ryegrass, Italian (Lolium multiflorum); assay: Test A preemergence, Italian ryegrass; details: 0 to 100 scale; for Ryegrass, Italian plant response rating: 0 is no effect, 100 is complete control
Procedure, shortened: (§1)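 Plants grown in a loam soil and sand blend were treated either preemergence by directed soil spray or postemergence when 2 to 10 cm tall (one- to two-leaf stage). Formulation: non-phytotoxic solvent mixture with surfactant. Greenhouse hold ~10 d, then visual injury assessment on a 0–100 scale.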

kochia (Kochia scoparia) [2] = assay: Test A preemergence, kochia; details: 0 to 100 scale; for Kochia plant response rating: 0 is no effect, 100 is complete control
Procedure, shortened: as §1

[3] = system: ryegrass, Italian (Lolium multiflorum); assay: Test A postemergence, Italian ryegrass; details: 0 to 100 scale; for Plant response rating, Ryegrass, Italian: 0 no effect, 100 complete control
Procedure, shortened: as §1

[4] = system: foxtail, giant (Setaria faberii); assay: Test A postemergence, giant foxtail; details: 0 to 100 scale; for Plant response rating, Foxtail, Giant: 0 no effect, 100 complete control
Procedure, shortened: as §1

kochia (Kochia scoparia) [5] = assay: Test A postemergence, kochia; details: 0 to 100 scale; for Plant response rating, Kochia: 0 no effect, 100 complete control
Procedure, shortened: as §1

[6] = system: pigweed (Amaranthus retroflexus); assay: Test A preemergence, pigweed; details: 0 to 100 scale; for Pigweed plant response rating: 0 is no effect, 100 is complete control
Procedure, shortened: as §1

[7] = system: ragweed (common ragweed, Ambrosia elatior); assay: Test A postemergence, ragweed; details: 0 to 100 scale; for Plant response rating, Ragweed: 0 no effect, 100 complete control
Procedure, shortened: as §1

[8] = system: pigweed (Amaranthus retroflexus); assay: Test A postemergence, pigweed; details: 0 to 100 scale; for Plant response rating, Pigweed: 0 no effect, 100 complete control
Procedure, shortened: as §1

[9] = system: galium (catchweed bedstraw, Galium aparine); assay: Test A postemergence, galium; details: 0 to 100 scale; for Plant response rating, Galium: 0 no effect, 100 complete control
Procedure, shortened: as §1

[10] = system: foxtail, giant (Setaria faberii); assay: Test A preemergence, giant foxtail; details: 0 to 100 scale; for Foxtail, Giant plant response rating: 0 is no effect, 100 is complete control
Procedure, shortened: as §1

[11] = system: sedge, umbrella (small-flower umbrella sedge, Cyperus difformis); assay: Test B flooded paddy test, umbrella sedge; details: Flood, 250 g ai/ha, applied to paddy water, 2-leaf stage, visual evaluation after 13 to 15 d
Procedure, shortened: (§2)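 Visual injury scores run from 0 (no effect) to 100 (complete control), assigned by comparison with controls 13 to 15 d after treatment. Treatment went into floodwater standing 3 cm over the soil of pots holding 2-leaf plants.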

[12] = system: barnyardgrass (Echinochloa crus-galli); assay: Test A preemergence, barnyardgrass; details: 0 to 100 scale; for Barnyardgrass plant response rating: 0 is no effect, 100 is complete control
Procedure, shortened: as §1

[13] = system: ducksalad (Heteranthera limosa); assay: Test B flooded paddy test, ducksalad; details: Flood, 250 g ai/ha, applied to paddy water, 2-leaf stage, visual evaluation after 13 to 15 d
Procedure, shortened: as §2

[14] = system: barnyardgrass (Echinochloa crus-galli); assay: Test B flooded paddy test, barnyardgrass; details: Flood, 250 g ai/ha, applied to paddy water, 2-leaf stage, visual evaluation after 13 to 15 d
Procedure, shortened: as §2

[15] = system: wheat (Triticum aestivum); assay: Test A postemergence, wheat; details: 0 to 100 scale; for Plant response rating, Wheat: 0 no effect, 100 complete control
Procedure, shortened: as §1

[16] = system: blackgrass (Alopecurus myosuroides); assay: Test A postemergence, blackgrass; details: 0 to 100 scale; for Plant response rating, Blackgrass: 0 no effect, 100 complete control
Procedure, shortened: as §1

[17] = system: ragweed (common ragweed, Ambrosia elatior); assay: Test A preemergence, ragweed; details: 0 to 100 scale; for Ragweed plant response rating: 0 is no effect, 100 is complete control
Procedure, shortened: as §1

corn (Zea mays) = assay: Test A postemergence, corn; details: 0 to 100 scale; for Plant response rating, Corn: 0 no effect, 100 complete control
Procedure, shortened: as §1

[18] = system: barnyardgrass (Echinochloa crus-galli); assay: Test A postemergence, barnyardgrass; details: 0 to 100 scale; for Plant response rating, Barnyardgrass: 0 no effect, 100 complete control
Procedure, shortened: as §1

rice (Oryza sativa) = assay: Test B flooded paddy test, rice; details: Flood, 250 g ai/ha, applied to paddy water, 2-leaf stage, visual evaluation after 13 to 15 d
Procedure, shortened: as §2

## Cc1cc(C)cc(OC[C@@H](C)Nc2ncc(C(F)(F)F)c(N)n2)c1 [Compound 25, N2-[(1R)-2-(3,5-dimethylphenoxy)-1-methylethyl]-5-(trifluoromethyl)-2,4-pyrimidinediamine]
[1]; 125 g ai/ha
  Plant response rating, Ryegrass, Italian: 20
[1]; 500 g ai/ha
  Plant response rating, Ryegrass, Italian: 70
Kochia (Kochia scoparia) [2]; 125 g ai/ha
  Plant response rating, Kochia: 20
Kochia (Kochia scoparia) [2]; 500 g ai/ha
  Plant response rating, Kochia: 90
[3]; Lolium multiflorum, post-emergence, 240 h, 125 g ai/ha, read-out: Plant response rating, Ryegrass, Italian
  pest or weed control at 125 g/ha: 0%
[3]; Lolium multiflorum, post-emergence, 240 h, 500 g ai/ha, read-out: Plant response rating, Ryegrass, Italian
  pest or weed control at 500 g/ha: 20%
[4]; Setaria faberi, post-emergence, 240 h, 125 g ai/ha, read-out: Plant response rating, Foxtail, Giant
  pest or weed control at 125 g/ha: 10%
[4]; Setaria faberi, post-emergence, 240 h, 500 g ai/ha, read-out: Plant response rating, Foxtail, Giant
  pest or weed control at 500 g/ha: 80%
Kochia (Kochia scoparia) [5]; Bassia scoparia, post-emergence, 240 h, 125 g ai/ha, read-out: Plant response rating, Kochia
  pest or weed control at 125 g/ha: 60%
Kochia (Kochia scoparia) [5]; Bassia scoparia, post-emergence, 240 h, 500 g ai/ha, read-out: Plant response rating, Kochia
  pest or weed control at 500 g/ha: 80%
[6]; 125 g ai/ha
  Plant response rating, Pigweed: 60
[6]; 500 g ai/ha
  Plant response rating, Pigweed: 100
[7]; Ambrosia artemisiifolia, post-emergence, 240 h, 125 g ai/ha, read-out: Plant response rating, Ragweed
  pest or weed control at 125 g/ha: 60%
[7]; Ambrosia artemisiifolia, post-emergence, 240 h, 500 g ai/ha, read-out: Plant response rating, Ragweed
  pest or weed control at 500 g/ha: 90%
[8]; Amaranthus retroflexus, post-emergence, 240 h, 125 g ai/ha, read-out: Plant response rating, Pigweed
  pest or weed control at 125 g/ha: 70%
[8]; Amaranthus retroflexus, post-emergence, 240 h, 500 g ai/ha, read-out: Plant response rating, Pigweed
  pest or weed control at 500 g/ha: 90%
[9]; Galium, post-emergence, 240 h, 125 g ai/ha, read-out: Plant response rating, Galium
  pest or weed control at 125 g/ha: 80%
[9]; Galium, post-emergence, 240 h, 500 g ai/ha, read-out: Plant response rating, Galium
  pest or weed control at 500 g/ha: 90%
[10]; 125 g ai/ha
  Plant response rating, Foxtail, Giant: 50
[10]; 500 g ai/ha
  Plant response rating, Foxtail, Giant: 100
[11]; Cyperus difformis, 360 h, read-out: Plant response rating, Sedge, Umbrella (0 to 100 scale, 0 is no effect, 100 is complete control)
  pest or weed control at 250 g/ha: 100%
[12]; 125 g ai/ha
  Plant response rating, Barnyardgrass: 90
[12]; 500 g ai/ha
  Plant response rating, Barnyardgrass: 100
[13]; Heteranthera limosa, 360 h, read-out: Plant response rating, Ducksalad (0 to 100 scale, 0 is no effect, 100 is complete control)
  pest or weed control at 250 g/ha: 0%
[14]; Echinochloa crus-galli, 360 h, read-out: Plant response rating, Barnyardgrass (0 to 100 scale, 0 is no effect, 100 is complete control)
  pest or weed control at 250 g/ha: 0%
[15]; Triticum aestivum, post-emergence, 240 h, 125 g ai/ha, read-out: Plant response rating, Wheat
  plant injury at 125 g/ha: 0%
[15]; Triticum aestivum, post-emergence, 240 h, 500 g ai/ha, read-out: Plant response rating, Wheat
  plant injury at 500 g/ha: 30%
[16]; Alopecurus myosuroides, post-emergence, 240 h, 125 g ai/ha, read-out: Plant response rating, Blackgrass
  pest or weed control at 125 g/ha: 0%
[16]; Alopecurus myosuroides, post-emergence, 240 h, 500 g ai/ha, read-out: Plant response rating, Blackgrass
  pest or weed control at 500 g/ha: 70%
[17]; 125 g ai/ha
  Plant response rating, Ragweed: 80
[17]; 500 g ai/ha
  Plant response rating, Ragweed: 100
Corn (Zea mays); Zea mays, post-emergence, 240 h, 125 g ai/ha
  Corn plant response rating (crop injury, 0 = no effect, 100 = complete kill) at 125 g/ha: 20%
Corn (Zea mays); Zea mays, post-emergence, 240 h, 500 g ai/ha
  Corn plant response rating (crop injury, 0 = no effect, 100 = complete kill) at 500 g/ha: 60%
[18]; Echinochloa crus-galli, post-emergence, 240 h, 125 g ai/ha, read-out: Plant response rating, Barnyardgrass
  pest or weed control at 125 g/ha: 50%
[18]; Echinochloa crus-galli, post-emergence, 240 h, 500 g ai/ha, read-out: Plant response rating, Barnyardgrass
  pest or weed control at 500 g/ha: 90%
Rice (Oryza sativa); Oryza sativa, 360 h, read-out: Plant response rating, Rice (0 to 100 scale, 0 is no effect, 100 is complete control)
  plant injury at 250 g/ha: 0%

## C[C@@H](Nc1ncc(C#N)c(N)n1)c1cc2ccccc2s1 [Compound 104]
[1]; 125 g ai/ha
  Ryegrass, Italian plant response rating: 30
[1]; 500 g ai/ha
  Ryegrass, Italian plant response rating: 60
Kochia (Kochia scoparia) [2]; 125 g ai/ha
  Kochia plant response rating: 30
Kochia (Kochia scoparia) [2]; 500 g ai/ha
  Kochia plant response rating: 90
[3]; 125 g ai/ha
  Plant response rating, Ryegrass, Italian: 0
[3]; 500 g ai/ha
  Plant response rating, Ryegrass, Italian: 70
[4]; 125 g ai/ha
  Plant response rating, Foxtail, Giant: 0
[4]; 500 g ai/ha
  Plant response rating, Foxtail, Giant: 20
Kochia (Kochia scoparia) [5]; 125 g ai/ha
  Plant response rating, Kochia: 10
Kochia (Kochia scoparia) [5]; 500 g ai/ha
  Plant response rating, Kochia: 60
[6]; 125 g ai/ha
  Pigweed plant response rating: 50
[6]; 500 g ai/ha
  Pigweed plant response rating: 80
[7]; 125 g ai/ha
  Plant response rating, Ragweed: 20
[7]; 500 g ai/ha
  Plant response rating, Ragweed: 80
[8]; 125 g ai/ha
  Plant response rating, Pigweed: 80
[8]; 500 g ai/ha
  Plant response rating, Pigweed: 100
[9]; 125 g ai/ha
  Plant response rating, Galium: 40
[9]; 500 g ai/ha
  Plant response rating, Galium: 80
[10]; 125 g ai/ha
  Foxtail, Giant plant response rating: 20
[10]; 500 g ai/ha
  Foxtail, Giant plant response rating: 60
[11]
  Plant response rating, Sedge, Umbrella (0 to 100 scale, 0 is no effect, 100 is complete control): 0
[12]; 125 g ai/ha
  Barnyardgrass plant response rating: 0
[12]; 500 g ai/ha
  Barnyardgrass plant response rating: 0
[13]
  Plant response rating, Ducksalad (0 to 100 scale, 0 is no effect, 100 is complete control): 0
[14]
  Plant response rating, Barnyardgrass (0 to 100 scale, 0 is no effect, 100 is complete control): 0
[15]; 125 g ai/ha
  Plant response rating, Wheat: 0
[15]; 500 g ai/ha
  Plant response rating, Wheat: 0
[16]; 125 g ai/ha
  Plant response rating, Blackgrass: 0
[16]; 500 g ai/ha
  Plant response rating, Blackgrass: 20
[17]; 125 g ai/ha
  Ragweed plant response rating: 60
[17]; 500 g ai/ha
  Ragweed plant response rating: 100
Corn (Zea mays); 125 g ai/ha
  Plant response rating, Corn: 0
Corn (Zea mays); 500 g ai/ha
  Plant response rating, Corn: 0
[18]; 125 g ai/ha
  Plant response rating, Barnyardgrass: 0
[18]; 500 g ai/ha
  Plant response rating, Barnyardgrass: 20
Rice (Oryza sativa)
  Plant response rating, Rice (0 to 100 scale, 0 is no effect, 100 is complete control): 0
